Test: Osmolarity of the contrast agent composition
Assay type: physicochemical
Conditions: comparator, hyperosmolar
From the text: For comparison, Dotarem® (gadoteric acid, GUERBET, FRANCE) is hyperosmolar at 1574 mosm, which can cause side effects in humans related to the hypertonicity of a hyperosmolar product creating an intense call of water from the interstitial and cellular spaces to the plasma, responsible for pain or heat. A pain threshold of 600 mOsm/kg has been set.

O=C([O-])CN1CCN(CC(=O)[O-])CCN(CC(=O)O)CCN(CC(=O)[O-])CC1.[Gd+3] [Dotarem®, gadoteric acid]
Osmolarity: 1574 mosm

Reference: US20260232805A1, “METHODS FOR IMAGING USING SPCCT” (NH THERAGUIX, priority 2022, published 2026)
